Reference: the NIST ThermoML archive (doi:10.1016/j.fluid.2018.12.025)
Where “and” joins values, the source holds several entries; their conditions need not be identical. Identical values can stand only once.

Conditions: 101.33 kPa, Liquid, transient hot wire

CCCC[N+]1(C)CCCC1.O=S(=O)([N-]S(=O)(=O)C(F)(F)F)C(F)(F)F
Conditions	thermal conductivity [W/m/K]
279.16 K	0.1159
294.59 K	0.115
306.65 K	0.1157
334.78 K	0.114
335.13 K	0.1143
338.98 K	0.1136
353.98 K	0.1153
362.23 K	0.1135
364.36 K	0.1142
383.56 K	0.1134
419.99 K	0.1126
438.07 K	0.1123

CCC[N+]1(C)CCCC1.O=S(=O)([N-]S(=O)(=O)C(F)(F)F)C(F)(F)F
Conditions	thermal conductivity [W/m/K]
279.07 K	0.118
300.88 K	0.1176
318.32 K	0.1174
326.71 K	0.1167
340.17 K	0.1178
351.81 K	0.1166
354.65 K	0.1172
389.67 K	0.1162
408.29 K	0.1142
409.24 K	0.1156
434.89 K	0.115
435.53 K	0.1138

Cc1ccccc1 [toluene]
Conditions	thermal conductivity
276.19 K	0.1359 W/m/K
278.42 K	0.1339 W/m/K
281.25 K	0.1324 W/m/K and 0.1325 W/m/K
302.05 K	0.129 W/m/K
304.59 K	0.1268 W/m/K
329.65 K	0.1235 W/m/K
331.24 K	0.1237 W/m/K
337.63 K	0.1242 W/m/K
339.65 K	0.122 W/m/K
339.85 K	0.1226 W/m/K
340.17 K	0.12 W/m/K
351.33 K	0.1166 W/m/K
351.55 K	0.12 W/m/K
352.25 K	0.1179 W/m/K

O [water]
Conditions	thermal conductivity [W/m/K]
276.41 K	0.5538
300.61 K	0.6257
303.32 K	0.6103
306.14 K	0.6095
325.57 K	0.6581
329.48 K	0.6422
333.39 K	0.6498
350.97 K	0.6877
355.05 K	0.672
356 K	0.6781
356.22 K	0.6716
356.54 K	0.6823
356.76 K	0.6589
356.9 K	0.6827
360.47 K	0.6765
361.52 K	0.6756
